According to patent US10948498B2, “Methods and kits for predicting the risk of having a cardiovascular disease or event” (INOTREM, priority 2013, dated 2021):

Columns and labels:
[1] = tested on: Atherosclerotic mice (24 weeks old ApoE−/− mice under fat diet); assay: Atherosclerosis in mouse: plasma sTREM-1 after peptide treatment; assay type: in vivo
Protocol: (B) Atherosclerotic mice were randomized to receive LR12 (100 μg in 0.2 mL NaCl 0.9% once a day for 4 weeks) or scrambled-LR12 (100 μg in 0.2 mL NaCl 0.9% once a day for 4 weeks), i.p. injections. Blood samples were obtained at the end of the treatment (4 weeks) to assess sTREM-1 plasma concentrations. Physiologic baseline is calculated from dosage in healthy animals. N=10 per group.
(§1) Mice serum levels of sTREM-1 were determined by ELISA (Mouse TREM-1 Quantikine ELISA Kit, RnDsystems) using a detection limit at 31.3 pg/mL.
12 and 24-weeks old male ApoE−/− mice were put on a fat (lipids 15%, cholesterol 1.25%, no cholate) or chow diet and were treated by daily intraperitoneal injection of peptides (100 μg/day). After 4 weeks of treatment, mice were sacrificed for blood sampling.
Our second objective was to assess whether a treatment could impact plasma levels of sTREM-1. Atherosclerotic mice (24 weeks old ApoE−/− mice under fat diet) were treated by LR12 peptide, which targets TREM-1 ligand, or a control peptide LR12-scrambled.

infarcted mice = assay: Mouse model of myocardial infarction: plasma sTREM-1 after peptide treatment; assay type: in vivo; details: for sTREM-1 levels: daily i.p. injection for 5 days, vs LR12-scrambled (FIG. 4A)
Protocol: (A) Adult male Balb/c mice (20-23 g) were subjected to myocardial ischemia and were randomly grouped (n=10 per group) to receive repeated LR12 (100 μg in 0.2 mL NaCl 0.9% once a day for 5 days) or scrambled-LR12 (100 μg in 0.2 mL NaCl 0.9% once a day for 5 days), i.p. injections. Blood samples was obtained at 24, 72 and 168 hours after cardiac ischemic event to measure plasma sTREM-1 levels. Physiologic baseline is calculated from dosage in healthy animals. N=10 per group and per timepoint.
as §1
All procedures were performed on mice male C57BL/C ranging in age from 6-8 weeks. Mice were anesthetized by an intraperitoneal injection of xylazine (60 mg/kg) and fixed in supine position. The trachea was intubated and ventilated (the tidal volume was 200 μl/25 g and the respiratory rate was 120 breaths/min). After a left thoracotomy, the left coronary artery was identified and ligated with an 8-0 prolene surgical suture at 1.0 mm distal from tip of the left auricle. LAD occlusion was confirmed by a change in myocardial color from red to white in the ischemia area (Left ventricle). The chest was closed and the skin was sutured with 6-0 silk. The animals returned to their cage where they are supervised until their complete recovery.
Mice were randomized to receive or not peptides (daily ip injection for 5 days, 5 mg/kg) and were sacrificed after 24 h, 72 h, 168 h (n=6 per group) by anesthesia followed with pentobarbital sodium overdose for blood sampling.
We also show in infarcted mice that sTREM-1 levels were decreased by LR12 treatment 24 and 72 hours after an ischemic event (FIG. 4A).

“LR12: 12 amino-acids peptide (LQEEDTGEYGCV, SEQ ID NO: 4) known to specifically target TREM-1 ligand (LR12)” was tested, and the sTREM-1 plasma concentration ([1]; 24 weeks old ApoE−/− mice under fat diet, 100 μg/day i.p., after 4 weeks of treatment, ELISA) was 189.8 pg/mL, the outcome during atherosclerosis ([1]; data not shown) was “better outcome” and the sTREM-1 levels (infarcted mice; 24 hours after ischemic event) was “decreased”. The sTREM-1 levels (infarcted mice; 72 hours after ischemic event) was “decreased” and the “outcome after a cardiac ischemic event” value (infarcted mice; data not shown) was “better outcome”.
